The subject of the test is SIRT family mRNA expression. Nature of the test: sirtuin (SIRT family) mRNA expression in rat primary enterocytes, quantitative PCR. Type of test: cell-based. The conditions noted are these: 2 μg/ml; enterocytes of chow-fed rats; FIG. 2. An excerpt: The baseline value for the effects of a high fructose diet on SIRT family mRNA expression is established. The experimental protocols parallel those of Firestein, R., et al., PLoS ONE, 2008; 3(4): e2020. doi:10.1371/journal.pone.0002020 except using Wistar rats. The animals fed ad libitum with water and either a standard chow diet or a high fructose diet. Primary enterocytes are obtained from animals (6 months of age) following sacrifice and rapid harvest of the intestine. The isolated intestine is thoroughly flushed with ice cold PBS.
Total RNA is isolated from primary enterocyte tissue obtained as above, adipose tissue (obtained by biopsy), or liver (obtained by biopsy) using TR1 reagent (Applied Biosystems, Austin, Tex.), according to the manufacturer's guidelines. The resulting total RNA is subjected to DNase treatment using RNase-free DNase (Ambion). The purity of isolated RNA is measured by a NanoDrop spectrophotometer. A set concentration of RNA is reverse transcribed into cDNA using SuperScript II RT, and quantitative PCR is performed on ABI Prism 7500 Sequence Detection System (Applied Biosystems, Carlsbad, Calif.) using SYBR Green PCR Master Mix (Applied Biosystems, Carlsbad, Calif.).
The level of sirtuin mRNA expression is assayed following exposure of rat primary enterocytes to the anthocyanin delphinidin. […]

SMILES strings stand for the structures.

As to `Oc1cc(O)c2cc(O)c(-c3cc(O)c(O)c(O)c3)[o+]c2c1` [delphinidin], the “increase of sirtuin gene expression as measured by mRNA levels over control” value was 2-3 fold.

The values above are taken from patent publication US10058579B2, “Dietary supplements containing extracts of cinnamon and methods of using same to promote enhanced sirtuin, cell and telomere integrity” (IN Ingredients, Inc., priority 2010, dated 2018).
